Measured values: patent US8772504B2, “Substituted benzoxazole, benzimidazole, oxazolopyridine and imidazopyridine derivatives as gamma secretase modulators” (Janssen Pharmaceuticals, Inc., priority 2009, dated 2014)

Experiments:
Aβtotal = test: Screening for γ-secretase-modulating activity, Method 1: Aβtotal sandwich ELISA on SKNBE2 cell media; type: cell-based; conditions: SKNBE2 cells carrying APP 695 wild type
Outline: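 SKNBE2 cells expressing wild-type APP 695 were treated with compound for 18 hours. Aβtotal in the medium was measured by sandwich ELISA (6E10 capture, biotinylated 4G8 detection, fluorogenic peroxidase read-out). IC50 came from a 4-parameter fit of % inhibition with top/bottom fixed at 100/0 and Hill slope 1, or as averaged IC50 from % of untreated control.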

Aβ42 = test: Screening for γ-secretase-modulating activity, Method 2: Aβ42 Alphalisa on SKNBE2 cell supernatant; type: cell-based; conditions: Method 2, Table 3c, SKNBE2 cells carrying APP 695 wild type, overnight incubation
Outline: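 SKNBE2 cells expressing wild-type APP695, plated at 10^4 cells/well with compound at several concentrations and incubated overnight at 37° C. Aβ42 (C-terminal capture, N-terminal biotinylated detection) and Aβtotal (N-terminal/4G8 pair) measured in supernatant by AlphaLISA. IC50 from 4-parameter fit of percent of compound-free control.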

[1] = Homo sapiens, Table 3a, 18 hours, XLfit, top/bottom fixed to 100 and 0, hill slope 1
[2] = Homo sapiens, Table 3b, non-linear regression of % of control, averaged IC50 values
[3] = Table 3a, 18 hours, XLfit, top/bottom fixed to 100 and 0, hill slope 1
[4] = Table 3b, non-linear regression of % of control, averaged IC50 values

Structure (SMILES) | IC50 (Aβtotal; [1]) | IC50 (Aβtotal; [2]) | IC50 (Aβ42; Homo sapiens) | IC50 (Aβtotal; [3]) | IC50 (Aβtotal; [4]) | IC50 (Aβ42)
COc1cc(Nc2cccc3c2nc(-c2ccc(F)cc2)n3C)ccc1-n1cnc(C)c1 [Compound 1] | > 1000 nM | 13500 nM | 16 nM |  |  | 
COc1cc(Nc2cccc3c2nc(-c2ccc(F)cc2)n3C)ccc1-n1cnc(C)n1 [Compound 4] | > 3000 nM | > 3000 nM | 27 nM |  |  | 
COc1cc(Nc2nccc3c2nc(-c2ccc(F)cc2)n3C)ccc1-n1cnc(C)c1 [Compound 8] | > 3000 nM | > 3000 nM | 17 nM |  |  | 
COc1nc(Nc2cccc3c2nc(-c2ccc(F)cc2)n3C)ccc1-n1cnc(C)c1 [Compound 15] | > 3000 nM | > 3000 nM | 6 nM |  |  | 
CCn1c(CC2CC2)nc2c(Nc3ccc(-n4cnc(C)c4)c(OC)c3)cccc21 [Compound 36] |  |  |  | > 3000 nM | > 3000 nM | 78 nM
COc1cc(Nc2cccc3c2nc(Oc2ccccc2)n3C)ccc1-n1cnc(C)c1 [Compound 61] |  |  |  | > 3000 nM | > 3000 nM | 141 nM
Cc1cn(-c2ccc(Nc3cccc4c3nc(-c3ccc(F)cc3)n4C)cc2F)cn1 [Compound 67] |  |  |  | > 3000 nM | > 3000 nM | 36 nM
Cc1ncn(-c2ccc(Nc3cccc4c3nc(-c3ccc(F)cc3)n4C(C)C)cc2)n1.Cl.Cl [Compound 73] |  |  |  | > 3000 nM | > 3000 nM | 288 nM
COc1cc(Nc2cccc3c2nc(-c2ccc(F)cc2)n3C(C)C)ccc1-n1cnc(C)n1.Cl.Cl [Compound 75] |  |  |  | > 3000 nM | > 3000 nM | 45 nM
Cc1ncn(-c2ccc(Nc3cccc4c3nc(-c3ccc(F)cc3)n4C(C)C)cn2)n1 [Compound 76] |  |  |  | > 3000 nM | > 10000 nM | 72 nM
COc1cc(Nc2nccc3c2nc(-c2ccc(F)cc2)n3C)ccc1-n1cnc(C)n1 [Compound 92] |  |  |  | > 10000 nM | > 10000 nM | 178 nM
COc1cc(Nc2cc(C(C)C)nc3c2nc(-c2ccc(F)cc2)n3C)ccc1-n1cnc(C)n1 [Compound 110] | > 3000 nM | 1170 nM | 20 nM |  |  | 
COc1cc(-c2nc3c(Nc4ccc(-n5cnc(C)n5)c(OC)c4)nccc3n2C)ccc1Cl [Compound 114] | > 3000 nM | > 3000 nM | 21 nM |  |  | 
COc1nc(Nc2cc(F)cc3c2nc(-c2ccc(F)cc2)n3C)ccc1-n1cnc(C)c1 [Compound 115] |  |  |  | > 10000 nM |  | 2 nM
COc1cc(Nc2nccc3c2nc(-c2ccccc2C(F)(F)F)n3C)ccc1-n1cnc(C)n1 [Compound 130] |  |  |  |  | > 3000 nM | 129 nM
COc1cc(Nc2nc(C)cc3c2nc(-c2ccc(F)cc2)n3C)ccc1-n1cnc(C)n1 [Compound 164] |  |  |  |  | > 3000 nM | 46 nM
